From PMC12102759 (Protein Science : A Publication of the Protein Society, 2025)
Where two headings read alike, the source gives them in different places.

System: G3BP1 NFT2
Assay type: binding, human
Details: library DMS-CoV, bait G3BP1 NFT2, prey N, listed as aa = residue placed at this position, column sums to 1

Sequence: RNAPRITFGGPSDSTG R5M (RNAPMITFGGPSDSTG)
- DMS PSSM value, R (position 5) (peptide RNAPRITFGGPSDSTG): 0.2004

Sequence: RNAPRITFGGPSDSTG A3T (RNTPRITFGGPSDSTG)
- DMS PSSM value, A (position 3) (peptide RNAPRITFGGPSDSTG): 0

Sequence: RNAPRITFGGPSDSTG G16R (RNAPRITFGGPSDSTR)
- DMS PSSM value, G (position 16) (peptide RNAPRITFGGPSDSTG): 0

Sequence: APRITFGGPSDSTGSN G7K (APRITFKGPSDSTGSN)
- DMS PSSM value, G (position 7) (peptide APRITFGGPSDSTGSN): 0

Sequence: RNAPRITFGGPSDSTG P4R (RNARRITFGGPSDSTG)
- DMS PSSM value, P (position 4) (peptide RNAPRITFGGPSDSTG): 0

Sequence: RNAPRITFGGPSDSTG N2E (REAPRITFGGPSDSTG)
- DMS PSSM value, N (position 2) (peptide RNAPRITFGGPSDSTG): 0.4748

Sequence: APRITFGGPSDSTGSN T13R (APRITFGGPSDSRGSN)
- DMS PSSM value, T (position 13) (peptide APRITFGGPSDSTGSN): 0

Sequence: APRITFGGPSDSTGSN S10W (APRITFGGPWDSTGSN)
- DMS PSSM value, S (position 10) (peptide APRITFGGPSDSTGSN): 0

Sequence: RNAPRITFGGPSDSTG S14E (RNAPRITFGGPSDETG)
- DMS PSSM value, S (position 14) (peptide RNAPRITFGGPSDSTG): 0

Sequence: APRITFGGPSDSTGSN R3F (APFITFGGPSDSTGSN)
- DMS PSSM value, R (position 3) (peptide APRITFGGPSDSTGSN): 0.003092

Sequence: RNAPRITFGGPSDSTG G9H (RNAPRITFHGPSDSTG)
- DMS PSSM value, G (position 9) (peptide RNAPRITFGGPSDSTG): 0

Sequence: RNAPRITFGGPSDSTG D13G (RNAPRITFGGPSGSTG)
- DMS PSSM value, D (position 13) (peptide RNAPRITFGGPSDSTG): 0

Sequence: RNAPRITFGGPSDSTG I6G (RNAPRGTFGGPSDSTG)
- DMS PSSM value, I (position 6) (peptide RNAPRITFGGPSDSTG): 0

Sequence: APRITFGGPSDSTGSN G8W (APRITFGWPSDSTGSN)
- DMS PSSM value, G (position 8) (peptide APRITFGGPSDSTGSN): 0

Sequence: APRITFGGPSDSTGSN T5E (APRIEFGGPSDSTGSN)
- DMS PSSM value, T (position 5) (peptide APRITFGGPSDSTGSN): 0.4512

Sequence: APRITFGGPSDSTGSN S15E (APRITFGGPSDSTGEN)
- DMS PSSM value, S (position 15) (peptide APRITFGGPSDSTGSN): 0.0004817

Sequence: APRITFGGPSDSTGSN F6N (APRITNGGPSDSTGSN)
- DMS PSSM value, F (position 6) (peptide APRITFGGPSDSTGSN): 0

Sequence: APRITFGGPSDSTGSN I4G (APRGTFGGPSDSTGSN)
- DMS PSSM value, I (position 4) (peptide APRITFGGPSDSTGSN): 0

Sequence: APRITFGGPSDSTGSN P9M (APRITFGGMSDSTGSN)
- DMS PSSM value, P (position 9) (peptide APRITFGGPSDSTGSN): 0

Sequence: RNAPRITFGGPSDSTG N2V (RVAPRITFGGPSDSTG)
- DMS PSSM value, N (position 2) (peptide RNAPRITFGGPSDSTG): 0

Sequence: RNAPRITFGGPSDSTG N2K (RKAPRITFGGPSDSTG)
- DMS PSSM value, N (position 2) (peptide RNAPRITFGGPSDSTG): 0

Sequence: RNAPRITFGGPSDSTG G10Q (RNAPRITFGQPSDSTG)
- DMS PSSM value, G (position 10) (peptide RNAPRITFGGPSDSTG): 0

Sequence: RNAPRITFGGPSDSTG T15P (RNAPRITFGGPSDSPG)
- DMS PSSM value, T (position 15) (peptide RNAPRITFGGPSDSTG): 0

Sequence: APRITFGGPSDSTGSN S12D (APRITFGGPSDDTGSN)
- DMS PSSM value, S (position 12) (peptide APRITFGGPSDSTGSN): 0

Sequence: APRITFGGPSDSTGSN T5D (APRIDFGGPSDSTGSN)
- DMS PSSM value, T (position 5) (peptide APRITFGGPSDSTGSN): 0

Sequence: APRITFGGPSDSTGSN R3D (APDITFGGPSDSTGSN)
- DMS PSSM value, R (position 3) (peptide APRITFGGPSDSTGSN): 9.037e-5

Sequence: RNAPRITFGGPSDSTG P11G (RNAPRITFGGGSDSTG)
- DMS PSSM value, P (position 11) (peptide RNAPRITFGGPSDSTG): 0

Sequence: APRITFGGPSDSTGSN A1L (LPRITFGGPSDSTGSN)
- DMS PSSM value, A (position 1) (peptide APRITFGGPSDSTGSN): 0.0004523

Sequence: RNAPRITFGGPSDSTG N2M (RMAPRITFGGPSDSTG)
- DMS PSSM value, N (position 2) (peptide RNAPRITFGGPSDSTG): 0

Sequence: RNAPRITFGGPSDSTG S12M (RNAPRITFGGPMDSTG)
- DMS PSSM value, S (position 12) (peptide RNAPRITFGGPSDSTG): 0

Sequence: RNAPRITFGGPSDSTG G9N (RNAPRITFNGPSDSTG)
- DMS PSSM value, G (position 9) (peptide RNAPRITFGGPSDSTG): 0

Sequence: APRITFGGPSDSTGSN G8E (APRITFGEPSDSTGSN)
- DMS PSSM value, G (position 8) (peptide APRITFGGPSDSTGSN): 0.0007374

Sequence: RNAPRITFGGPSDSTG F8A (RNAPRITAGGPSDSTG)
- DMS PSSM value, F (position 8) (peptide RNAPRITFGGPSDSTG): 0

Sequence: RNAPRITFGGPSDSTG P4N (RNANRITFGGPSDSTG)
- DMS PSSM value, P (position 4) (peptide RNAPRITFGGPSDSTG): 0

Sequence: RNAPRITFGGPSDSTG G9L (RNAPRITFLGPSDSTG)
- DMS PSSM value, G (position 9) (peptide RNAPRITFGGPSDSTG): 0

Sequence: RNAPRITFGGPSDSTG N2A (RAAPRITFGGPSDSTG)
- DMS PSSM value, N (position 2) (peptide RNAPRITFGGPSDSTG): 0

Sequence: APRITFGGPSDSTGSN G7S (APRITFSGPSDSTGSN)
- DMS PSSM value, G (position 7) (peptide APRITFGGPSDSTGSN): 0

Sequence: RNAPRITFGGPSDSTG S14T (RNAPRITFGGPSDTTG)
- DMS PSSM value, S (position 14) (peptide RNAPRITFGGPSDSTG): 0

Sequence: RNAPRITFGGPSDSTG G10K (RNAPRITFGKPSDSTG)
- DMS PSSM value, G (position 10) (peptide RNAPRITFGGPSDSTG): 0

Sequence: RNAPRITFGGPSDSTG G16P (RNAPRITFGGPSDSTP)
- DMS PSSM value, G (position 16) (peptide RNAPRITFGGPSDSTG): 0

Sequence: APRITFGGPSDSTGSN G7N (APRITFNGPSDSTGSN)
- DMS PSSM value, G (position 7) (peptide APRITFGGPSDSTGSN): 0

Sequence: APRITFGGPSDSTGSN P2G (AGRITFGGPSDSTGSN)
- DMS PSSM value, P (position 2) (peptide APRITFGGPSDSTGSN): 0

Sequence: APRITFGGPSDSTGSN A1I (IPRITFGGPSDSTGSN)
- DMS PSSM value, A (position 1) (peptide APRITFGGPSDSTGSN): 0.004309

Sequence: RNAPRITFGGPSDSTG G16M (RNAPRITFGGPSDSTM)
- DMS PSSM value, G (position 16) (peptide RNAPRITFGGPSDSTG): 0

Sequence: APRITFGGPSDSTGSN P2Y (AYRITFGGPSDSTGSN)
- DMS PSSM value, P (position 2) (peptide APRITFGGPSDSTGSN): 0

Sequence: RNAPRITFGGPSDSTG P11Y (RNAPRITFGGYSDSTG)
- DMS PSSM value, P (position 11) (peptide RNAPRITFGGPSDSTG): 0

Sequence: RNAPRITFGGPSDSTG N2H (RHAPRITFGGPSDSTG)
- DMS PSSM value, N (position 2) (peptide RNAPRITFGGPSDSTG): 0

Sequence: APRITFGGPSDSTGSN G8D (APRITFGDPSDSTGSN)
- DMS PSSM value, G (position 8) (peptide APRITFGGPSDSTGSN): 0

Sequence: APRITFGGPSDSTGSN S10I (APRITFGGPIDSTGSN)
- DMS PSSM value, S (position 10) (peptide APRITFGGPSDSTGSN): 0.2604

Sequence: RNAPRITFGGPSDSTG G16A (RNAPRITFGGPSDSTA)
- DMS PSSM value, G (position 16) (peptide RNAPRITFGGPSDSTG): 0

Sequence: RNAPRITFGGPSDSTG S12P (RNAPRITFGGPPDSTG)
- DMS PSSM value, S (position 12) (peptide RNAPRITFGGPSDSTG): 0

Sequence: APRITFGGPSDSTGSN G14E (APRITFGGPSDSTESN)
- DMS PSSM value, G (position 14) (peptide APRITFGGPSDSTGSN): 0.002668
